Assay results published in ChEMBL document CHEMBL1153782, “3D QSAR study of the toxicity of trichothecene mycotoxins” (Eur J Med Chem, 2009).

Tests used:
[1] = test system: Saccharomyces cerevisiae; assay: Cytotoxicity against yeast cells assessed as logarithm of ratio of toxicity of test compound to Tetraol; assay type: functional, organism-based
[2] = test system: Saccharomyces cerevisiae; assay: Cytotoxicity against yeast cells relative to Tetraol; assay type: functional, organism-based

CC(=O)OC[C@]12CCC(C)=C[C@H]1O[C@@H]1[C@H](O)[C@@H](OC(C)=O)[C@@]2(C)[C@]12CO2
Activity [1]: 343
Ratio [2]: 343

CC(=O)OC[C@]12CCC(C)=C[C@H]1O[C@@H]1[C@H](OC(C)=O)[C@@H](OC(C)=O)[C@@]2(C)[C@]12CO2
Activity [1]: 2.2
Ratio [2]: 2.2
